The record followed here is patent publication US8188135B2, “Compounds as cannabinoid receptor ligands” (priority 2008, dated 2012).

The structures appear in SMILES notation.

One series addresses T1, Rat CB1 (Rattus norvegicus, UniProt P20272).
T1 construct: expressed in transfected cells; host or cells: HEK
The series can be described thus: rat CB1 cyclase functional assay (HitHunter cAMP). It is filed as cell-based. The conditions noted are these: Rat CB1 cyclase (EC50, nM), HEK cells, forskolin 37 μM. An outline of the steps:
(§1)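 HEK cells expressing rat CB1 or CB2, 10,000 cells/well, incubated 20 min at 37° C with test ligands plus forskolin (37 μM for CB1, 18 μM for CB2) in DPBS with 0.01% BSA. cAMP read by enzyme-complementation luminescence after lysis; EC50 from sigmoidal dose-response fit.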

For series [1], the target named is T2, rat CB2 (Rattus norvegicus, UniProt Q9QZN9).
T2 sequence (Q9QZN9 1-360): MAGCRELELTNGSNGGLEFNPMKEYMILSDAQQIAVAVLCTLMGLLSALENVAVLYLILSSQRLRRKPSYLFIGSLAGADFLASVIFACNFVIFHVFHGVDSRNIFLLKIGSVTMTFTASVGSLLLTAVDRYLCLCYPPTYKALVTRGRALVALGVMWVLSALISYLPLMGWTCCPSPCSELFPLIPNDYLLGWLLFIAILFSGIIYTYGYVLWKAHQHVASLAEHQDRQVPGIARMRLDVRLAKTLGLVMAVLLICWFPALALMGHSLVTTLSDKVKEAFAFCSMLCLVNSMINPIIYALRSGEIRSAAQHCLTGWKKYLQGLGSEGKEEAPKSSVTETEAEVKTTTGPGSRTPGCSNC
The series can be described thus: rat CB2 radioligand binding assay ([3H]CP 55,940 competition). More on the design: expressed in transfected cells; host or cells: HEK293. To be noted: rat CB2 (Ki, nM), HEK293 membranes, 0.5 nM [3H]CP 55,940. An outline of the steps:
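Competition binding against 0.5 nM [3H]CP 55,940 (pH 7.4 buffer with 0.5 mg/mL BSA, 30 °C, 45 min), with displacers spanning 0.01 nM–10 μM at five concentrations. Receptor source: stably transfected HEK293 membranes, 20 μg/well. Nonspecific binding defined by 10 μM unlabeled CP 55,940; readout by filtration and counting.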

A short description of series [2]: pharmacokinetic studies in rats. To be noted: male, Sprague-Dawley, rat, in vivo; for clearance / half-life: iv, 3 micromole/kg; for bioavailability: po, 10 micromole/kg.
The target of series [3] is T2, rat CB2. The series can be described thus: rat CB2 cyclase functional assay (HitHunter cAMP). It is filed as cell-based. Details: expressed in transfected cells; host or cells: HEK. To be noted: rat CB2 cyclase (EC50, nM), HEK cells, forskolin 18 μM. The gist of the method: as §1
For the next series, the target named is T3, human CB2 receptors (Homo sapiens, UniProt P34972).
T3 construct: expressed in transfected cells; host or cells: HEK293
T3 sequence (P34972 whole entry): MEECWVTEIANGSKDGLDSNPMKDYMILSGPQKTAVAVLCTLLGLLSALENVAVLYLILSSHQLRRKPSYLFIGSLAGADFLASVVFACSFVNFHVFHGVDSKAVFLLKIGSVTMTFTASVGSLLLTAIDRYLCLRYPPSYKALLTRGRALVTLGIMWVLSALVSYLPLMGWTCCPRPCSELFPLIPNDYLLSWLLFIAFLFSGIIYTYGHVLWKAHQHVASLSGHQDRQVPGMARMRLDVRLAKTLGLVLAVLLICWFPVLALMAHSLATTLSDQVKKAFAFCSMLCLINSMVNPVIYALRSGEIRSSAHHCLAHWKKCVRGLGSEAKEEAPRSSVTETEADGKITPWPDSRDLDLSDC
The series can be described thus: human CB2 radioligand binding assay ([3H]CP 55,940 competition). To be noted: human CB2 (Ki, nM), HEK293 membranes, 0.5 nM [3H]CP 55,940. An outline of the steps:
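Displacement of 0.5 nM [3H]CP 55,940 over 0.01 nM-10 μM test compound, measured on human CB2 membranes from stably transfected HEK293 cells. Incubation 90 min at 30 °C in Tris/EDTA/MgCl2/BSA, pH 7.4, then filter-bound radioactivity counted; 10 μM unlabeled CP 55,940 defined nonspecific binding.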

T1 sequence (P20272 whole entry): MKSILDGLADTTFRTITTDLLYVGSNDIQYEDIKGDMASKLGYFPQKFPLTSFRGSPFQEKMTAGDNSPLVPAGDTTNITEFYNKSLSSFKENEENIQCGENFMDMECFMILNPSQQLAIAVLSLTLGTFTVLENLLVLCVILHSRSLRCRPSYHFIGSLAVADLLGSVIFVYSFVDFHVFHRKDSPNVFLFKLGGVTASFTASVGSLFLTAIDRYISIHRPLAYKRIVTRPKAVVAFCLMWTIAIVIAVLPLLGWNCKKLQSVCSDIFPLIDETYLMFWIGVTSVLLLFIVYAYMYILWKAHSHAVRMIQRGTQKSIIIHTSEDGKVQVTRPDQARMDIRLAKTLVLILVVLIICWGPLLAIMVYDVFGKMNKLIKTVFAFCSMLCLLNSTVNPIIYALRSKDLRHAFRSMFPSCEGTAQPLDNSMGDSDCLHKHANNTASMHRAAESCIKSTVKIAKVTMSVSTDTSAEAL

For the molecule `Cn1c(C(C)(C)C)c/c(=N\C(=O)c2cc(C(F)(F)F)ccc2OCC(C)(C)O)n1CC1CCC1` [Example 86, N-[(3E)-5-tert-butyl-2-(cyclobutylmethyl)-1-methyl-1,2-dihydro-3H-pyrazol-3-ylidene]-2-(2-hydroxy-2-methylpropoxy)-5-(trifluoromethyl)benzamide], the EC50 at Rat CB1 came to 4020 nM. On rat CB2 [1], this molecule returned a Ki of 4.3 nM. For the same molecule, in series [2], the clearance was 5 mL/min/kg, the half-life was 324 min and the bioavailability is 50%. Besides, the EC50 on rat CB2 [3] came to 0.23 nM. Moreover, the Ki at human CB2 receptors stood at 8.3 nM.
As to `Cn1c(C(C)(C)C)c/c(=N\C(=O)c2cc(C#N)ccc2OCC(C)(C)O)n1C[C@H]1CCCO1` [Example 90, N-{(3E)-5-tert-butyl-1-methyl-2-[(2R)-tetrahydrofuran-2-ylmethyl]-1,2-dihydro-3 H-pyrazol-3-ylidene}-5-cyano-2-(2-hydroxy-2-methylpropoxy)benzamide], at Rat CB1, the EC50 is over 27000 nM. The molecule further gave a Ki on rat CB2 [1] of 11 nM. Further, in series [2], the clearance is 41.7 mL/min/kg, the half-life was 126 min and the bioavailability worked out at 28%. Further, the EC50 at rat CB2 [3] came out at 1.8 nM. Moreover, affinity on human CB2 receptors was put at a Ki of 41 nM.
As for `Cn1c(C2(C)CC2)c/c(=N\C(=O)c2cc(C(F)(F)F)ccc2OCCC(C)(C)O)n1C[C@H]1CCCO1` [Example 68, 2-(3-hydroxy-3-methylbutoxy)-N-{(3E)-1-methyl-5-(1-methylcyclopropyl)-2-[(2 R)-tetrahydrofuran-2-ylmethyl]-1,2-dihydro-3H-pyrazol-3-ylidene}-5-(trifluoromethyl)benzamide], on Rat CB1, the EC50 is over 27000 nM. In addition, the affinity at rat CB2 [1], expressed as Ki, was 13 nM. In series [2], this molecule gave a clearance of 40 mL/min/kg, a half-life of 132 min and a bioavailability of 25%. The EC50 on rat CB2 [3] was found to be 0.2 nM. For the same molecule, at human CB2 receptors, the affinity, expressed as Ki, was 77 nM.
Turning to `Cn1c(C(C)(C)C)c/c(=N\C(=O)c2cc(C(F)(F)F)ccc2OCC(C)(C)O)n1C[C@H]1CCCO1` [Example 5, N-{(3E)-5-tert-butyl-1-methyl-2-[(2R)-tetrahydrofuran-2-ylmethyl]-1,2-dihydro-3H-pyrazol-3-ylidene}-2-(2-hydroxy-2-methylpropoxy)-5-(trifluoromethyl)benzamide], the EC50 at Rat CB1 amounted to 7690 nM. In addition, at rat CB2 [1], the affinity, expressed as Ki, was 5.5 nM. In series [2], this molecule showed a clearance of 18.3 mL/min/kg, a half-life of 126 min and a bioavailability of 37%. In addition, the EC50 on rat CB2 [3] came out at 0.22 nM. On human CB2 receptors, the Ki turned out to be 10 nM.
Take `Cn1c(C(C)(C)C)c/c(=N\C(=O)c2cc(C(F)(F)F)ccc2OCCC(C)(C)O)n1C[C@H]1CCCO1` [Example 20, N-{(3E)-5-tert-butyl-1-methyl-2-[(2R)-tetrahydrofuran-2-ylmethyl]-1,2-dihydro-3H-pyrazol-3-ylidene}-2-(3-hydroxy-3-methylbutoxy)-5-(trifluoromethyl)benzamide]: the EC50 on Rat CB1 stood at 6850 nM. This molecule also showed a Ki at rat CB2 [1] of 11 nM. In series [2], this molecule had a clearance of 13.3 mL/min/kg, a half-life of 234 min and a bioavailability of 27%. At rat CB2 [3], the EC50 is 0.57 nM. The same molecule yielded a Ki at human CB2 receptors of 35 nM.
Regarding `Cn1c(C(C)(C)C)c/c(=N\C(=O)c2cc(Cl)ccc2OCC(C)(C)O)n1C[C@H]1CCCO1` [Example 89, N-{(3E)-5-tert-butyl-1-methyl-2-[(2R)-tetrahydrofuran-2-ylmethyl]-1,2-dihydro-3 H-pyrazol-3-ylidene}-5-chloro-2-(2-hydroxy-2-methylpropoxy)benzamide], the EC50 at Rat CB1 came out at 2320 nM. This molecule came in with a Ki at rat CB2 [1] of 7.6 nM. In series [2], the clearance is 16.7 mL/min/kg, the half-life is 96 min and the bioavailability is 37%. Moreover, the EC50 at rat CB2 [3] came out at 0.61 nM. This molecule also returned a Ki on human CB2 receptors of 19 nM.
Regarding `Cn1c(C(C)(C)C)c/c(=N\C(=O)c2cc(C#N)ccc2OCC(C)(C)O)n1CC1CCCC1` [Example 127, N-[(3E)-5-tert-butyl-2-(cyclopentylmethyl)-1-methyl-1,2-dihydro-3H-pyrazol-3-ylidene]-5-cyano-2-(2-hydroxy-2-methylpropoxy)benzamide], the EC50 on Rat CB1 was over 27000 nM. In addition, the affinity on rat CB2 [1], expressed as Ki, was 12 nM. In series [2], this molecule had a clearance of 46.7 mL/min/kg, a half-life of 48 min and a bioavailability of 60%. Further, on rat CB2 [3], the EC50 was 1.78 nM. On human CB2 receptors, this molecule came in with a Ki of 47 nM.
As for `Cn1c(C2(C)CC2)c/c(=N\C(=O)c2cc(C(F)(F)F)ccc2OCC(C)(C)O)n1C[C@H]1CCCO1` [Example 70, 2-(2-hydroxy-2-methylpropoxy)-N-{(3E)-1-methyl-5-(1-methylcyclopropyl)-2-[(2 R)-tetrahydrofuran-2-ylmethyl]-1,2-dihydro-3H-pyrazol-3-ylidene}-5-(trifluoromethyl)benzamide], the figures for the EC50 on Rat CB1 and at rat CB2 [3] were over 27000 nM and 0.47 nM, respectively. Moreover, the Ki at rat CB2 [1] is 4.4 nM; on human CB2 receptors it was 27 nM. In series [2], this molecule gave a clearance of 30 mL/min/kg. In series [2], this molecule had a half-life of 138 min. The same molecule gave a bioavailability in series [2] of 46%.
Consider `CCCCn1/c(=N/C(=O)c2cc(C(F)(F)F)ccc2OCC(C)(C)O)cc(C(C)(C)C)n1C` [Example 81, N-[(3E)-2-butyl-5-tert-butyl-1-methyl-1,2-dihydro-3H-pyrazol-3-ylidene]-2-(2-hydroxy-2-methylpropoxy)-5-(trifluoromethyl)benzamide], for which the EC50 at Rat CB1 was determined as 3360 nM. The molecule also came in with a Ki at rat CB2 [1] of 25 nM. In series [2], the clearance was 3.33 mL/min/kg, the half-life was 300 min and the bioavailability was 61%. The EC50 on rat CB2 [3] is 0.5 nM. For the same molecule, the affinity at human CB2 receptors corresponds to a Ki of 44 nM.
In the case of `Cn1c(C(C)(C)C)c/c(=N\C(=O)c2cc(C(F)(F)F)ccc2OCC(C)(C)O)n1CCC(F)(F)F` [Example 87, N-[(3E)-5-tert-butyl-1-methyl-2-(3,3,3-trifluoropropyl)-1,2-dihydro-3H-pyrazol-3-ylidene]-2-(2-hydroxy-2-methylpropoxy)-5-(trifluoromethyl)benzamide], the EC50 on Rat CB1 came out at 3110 nM. The Ki at rat CB2 [1] came out at 7.6 nM. In series [2], the clearance is 5 mL/min/kg, the half-life is 192 min and the bioavailability is 64%. The EC50 at rat CB2 [3] is 0.25 nM. Besides, at human CB2 receptors, the inhibition constant Ki is 18 nM.

By EC50 is commonly meant the concentration needed to bring the measured effect to its halfway point. The Ki is the dissociation constant of the complex between target and ligand, obtained from inhibition or displacement. Higher therefore signals lower affinity. For orientation: clearance means the volume of plasma or blood freed of the substance per unit of time. Read a low clearance as inefficient removal. Broadly, the half-life is the time needed for the level to fall by half in the phase considered. A low value points to fast loss. One may read the bioavailability as the share of a dose that reaches the circulation, judged against a reference dose that is usually intravenous. A low value points to poor availability.
